The target of one data set is CSF-1R (Homo sapiens (Human), UniProt P07333). Nature of the data set: In vitro enzymatic inhibitory activity, CSF-1R kinase (33P-ATP filter-binding). Conditions: CSF-1R 2.5 nM, 2 h room temperature. The data set is classed as biochemical. Here is the method: Basic reaction buffer: 20 mM hydroxyethylpiperazine ethane sulfonic acid (pH 7.5), 10 mM magnesium chloride, 1 mM EGTA, 0.02% Brij35, 0.02 mg/mL bovine serum albumin, 0.1 mM
Na3VO4, 2 mM DTT, 1% DMSO
Necessary cofactors were separately added to the CSF-1R kinase reaction.
The test compounds were prepared into solutions of specified concentrations in 100% DMSO, and the solutions were serially diluted in DMSO using the Integra Viaflo Assist.
1. A fresh medium preparation reaction buffer was prepared;
2. All necessary cofactors were added to the reaction buffer described above;
3. The kinase was added into the medium solution and the mixture was shaked gently;
4. Solutions of the compounds in DMSO were added to the kinase reaction mixture using an acoustic technique (Echo550; in nanoliter range), and the system was incubated at room temperature for 20 min;
5. ^33P-ATP (specific activity: 10 μCi/μL) was added to the reaction mixture to initiate the reaction;
6. The mixture was incubated for 2 h at room temperature;
7. The kinase activity was detected by a filter-binding method;
8. The kinase activity IC50 values and the curves were obtained by comparison with the other kinases and the vehicle (DMSO) group using Prism (GraphPad software).

Another data set deals with CYP2C19 (Homo sapiens (Human), UniProt P33261). Nature of the data set: Cytochrome enzyme inhibition study, CYP2C19. The data set is classed as in vitro ADME. Conditions: human liver microsomes, mixed probe substrate; read-out: CYP inhibition (IC50, μM) 2C19. Here is the method:
(§1) A mixed probe substrate of CYP isoenzymes were used to evaluate the inhibitory effect of test compounds on human liver microsomal cytochrome P450 isoenzymes (CYP1A2, CYP2C9, CYP2C19, CYP2D6 and CYP3A4). The test compounds were prepared into 10 mM stock solutions with DMSO. A 178 μL solution of human liver microsome and substrate mixture was added to the non-inhibitor control (NIC) and test compound wells of the reaction plate and the reaction was then placed on ice. 2 μL of blank solvent and test compound working solution were taken from the dilution plate, and added to the reaction plate (at final concentrations of 0.05-50 μM). The reaction plate was prewarmed in a 37±0.2° C. water bath for 10 min. 20 μL of the cofactor solution was taken by a liquid treatment workstation and added into the reaction plate to initiate the reaction. After 10 min, 400 μL of terminating solution was added to the reaction plate to terminate the reaction, and the reaction plate was incubated on ice for 5 min. […] The peak areas of the substrate and the product were detected by liquid chromatography-mass spectrometer (LC/MS/MS). […] The peak area ratio of the metabolite generated by the probe substrate to the internal standard was determined by liquid chromatography-mass spectrometer (LC-MS/MS). […] IC50 values were calculated by a three-parameter or four-parameter sigmoidal logarithmic equation. […]
In general terms: Liver microsomes are a subcellular fraction often used to study metabolism.

The target of another data set is CYP3A4 (Homo sapiens (Human), UniProt P08684). The data set can be described thus: Cytochrome enzyme inhibition study, CYP3A4. It counts as in vitro ADME. The settings on record: human liver microsomes, mixed probe substrate; read-out: CYP inhibition (IC50, μM) 3A4. Here is the method: as §1
Chain of CYP3A4 (P08684 whole entry): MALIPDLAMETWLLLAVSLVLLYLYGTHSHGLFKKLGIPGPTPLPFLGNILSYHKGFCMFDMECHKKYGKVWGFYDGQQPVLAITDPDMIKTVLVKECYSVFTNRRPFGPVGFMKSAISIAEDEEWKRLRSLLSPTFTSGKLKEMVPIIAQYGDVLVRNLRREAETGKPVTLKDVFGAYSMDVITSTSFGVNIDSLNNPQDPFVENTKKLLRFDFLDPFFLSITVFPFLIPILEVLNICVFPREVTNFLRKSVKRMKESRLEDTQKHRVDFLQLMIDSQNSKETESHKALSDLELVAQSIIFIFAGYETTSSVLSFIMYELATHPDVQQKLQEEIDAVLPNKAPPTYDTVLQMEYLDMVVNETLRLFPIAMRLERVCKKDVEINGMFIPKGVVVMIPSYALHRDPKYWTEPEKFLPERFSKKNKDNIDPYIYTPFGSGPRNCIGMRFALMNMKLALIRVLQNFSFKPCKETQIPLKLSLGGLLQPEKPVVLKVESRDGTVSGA
For a further data set, the target named is CYP1A2 (Homo sapiens (Human), UniProt P05177). The data set can be described thus: Cytochrome enzyme inhibition study, CYP1A2. Conditions: human liver microsomes, mixed probe substrate; read-out: CYP inhibition (IC50, μM) 1A2. It counts as in vitro ADME. Here is the method:
as §1

Data set [1] in a line: Pharmacokinetic study in rats. The settings on record: male, SD, plasma, rat. The data set is classed as in vivo. An excerpt:
(§2) This study was intended to explore the pharmacokinetics of the test compound in the plasma of male C57BL/6J mice and SD rats after intravenous and oral administrations.
(§3) The animals were randomized into two groups of 3 male animals. The compounds were formulated as designated (vehicle: 0.5% MC), i.e., clear solutions for intravenous injection and clear or homogeneous suspensions for oral formulations.
(§4) Animal whole blood samples were collected by jugular vein puncture or from saphenous vein at 5 min, 15 min and 30 min and 1 h, 2 h, 4 h, 6 h and 8 h post-dose. The whole blood samples were added to centrifuge tubes containing anticoagulant and centrifuged at 4° C., 3000 g for 15 min. The plasma supernatant was taken and quickly frozen on dry ice and stored in a freezer at −70±10° C. before LC-MS/MS analysis.
(§5) Plasma drug concentration data for compounds were processed in a non-compartmental model using WinNonlin™ Version 6.3.0 (Pharsight, Mountain View, CA) pharmacokinetic software. Peak concentration (Cmax) and time to peak (Tmax) and time of the last quantifiable concentration were directly obtained from the plasma concentration-time curve.
(§6) The following pharmacokinetic parameters were calculated using the log-linear trapezoidal method: plasma clearance (CL), volume of distribution (Vd), elimination phase half-life (T1/2), mean retention time of the compound from point 0 to the last time point (MRT0-last), mean retention time of the compound from point 0 to infinite (MRT0-inf), area under the time-plasma concentration curve from point 0 to the last time point (AUC0-last), area under the time-plasma concentration curve from point 0 to infinite (AUC0-inf) and bioavailability (F).

In another data set the target is CYP2C9 (Homo sapiens (Human), UniProt P11712). The data set can be described thus: Cytochrome enzyme inhibition study, CYP2C9. It counts as in vitro ADME. Conditions: human liver microsomes, mixed probe substrate; read-out: CYP inhibition (IC50, μM) 2C9. Here is the method:
as §1

Data set [2] can be described thus: Pharmacokinetic study in mice. The data set is classed as in vivo, male C57BL/6J mice. The settings on record: male, C57BL/6J, plasma, mouse.
Excerpt: as §2, §3, §4, §5, §6

For the next data set, the target named is CYP2D6 (Homo sapiens (Human), UniProt P10635). The data set can be described thus: Cytochrome enzyme inhibition study, CYP2D6. It counts as in vitro ADME. The settings on record: human liver microsomes, mixed probe substrate; read-out: CYP inhibition (IC50, μM) 2D6. Here is the method: as §1
Chain of CYP2D6 (P10635 whole entry): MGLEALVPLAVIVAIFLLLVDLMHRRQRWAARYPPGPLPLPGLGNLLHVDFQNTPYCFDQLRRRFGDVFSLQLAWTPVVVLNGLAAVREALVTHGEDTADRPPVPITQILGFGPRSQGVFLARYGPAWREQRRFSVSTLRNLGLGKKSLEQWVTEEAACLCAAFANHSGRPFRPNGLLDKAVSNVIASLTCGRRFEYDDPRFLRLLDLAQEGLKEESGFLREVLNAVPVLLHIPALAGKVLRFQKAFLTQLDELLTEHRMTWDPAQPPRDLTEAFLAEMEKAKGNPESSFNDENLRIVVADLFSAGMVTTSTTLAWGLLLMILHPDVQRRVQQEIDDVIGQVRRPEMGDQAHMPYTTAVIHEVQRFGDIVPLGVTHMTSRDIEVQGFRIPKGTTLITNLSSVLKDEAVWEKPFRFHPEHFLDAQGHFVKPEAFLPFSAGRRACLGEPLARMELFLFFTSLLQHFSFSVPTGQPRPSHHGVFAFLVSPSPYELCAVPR
For data set [3], the system named is Ba/F3-TEL-CSF1R cell in situ graft tumor. The data set can be described thus: In vivo pharmacodynamic study, Ba/F3-TEL-CSF1R cell in situ graft tumor model (splenomegaly). On the set-up: species or system nu/nu mice. The settings on record: for efficacy in TEL-CSF1R-BaF3 cell splenomegaly assay: p.o., QD. Here is the method: The in vivo efficacy of compound 1 hydrochloride on Ba/F3-TEL-CSF1R cell in situ graft tumor model was evaluated.
• Cell culture: Ba/F3-TEL-CSF1R cells were cultured in 1640 medium (Biological Industries)+10% fetal bovine serum (BI)+1% dual antibiotic solution (Penicilin Streptomycin Solution, Coring, USA) at 37° C. at 5% CO2 and passaged twice a week. When the saturation reached 80%-90% and met the requirement, the cells were collected, counted and grafted. • Animals: 28 nu/nu mice, female, aged 6-8 weeks, 18-22 g, supplied by Beijing Vital River Laboratory Animal Technology Co., Ltd. • Tumor grafting: 0.2 mL of Ba/F3-TEL-CSF1R cell suspension (2×10^6 cells) was grafted into each mouse through tail vein injection, and the mice were randomized by weight on day 10. • Grouping and dosing regimens
The animals were housed in SPF animal rooms in independent cages with air supply, and each cage contained no more than 5 animals. • ? Temperature: 20-26° C. • ? Humidity: 35%-75% • ? Illumination: 12 h/12 h light/darkness cycle • ? Corn core padding, changed once a week • ? […] Labeling: ear cutting. • Grouping: The subcutaneous tumor-bearing state was observed every day after grafting; the body weight and tumor volume were measured before grouping, and the mice were randomized according to the data. • Observation: The drafting and any modification of the protocol were approved by the Ethics
Committee of Laboratory Animal Welfare of Precision Preceding Do Co., Ltd. (Hefei, China). Animals were monitored daily for health and mortality, including, for example, tumor growth, mobility, diet, weight, eye, hair and other abnormal behaviors, appearance, signs or other abnormalities. The numbers of deaths and adverse events in the groups were recorded based on the number of animals. • Parameters: The body weights were measured and animal survival rate observed daily; at the end of the study (4 h after the last dose), the mice were euthanized and the spleen and liver were collected, weighed and photographed. • The results are shown in FIG. 1.

The next data set deals with MDR1-MDCK. The data set can be described thus: Permeability study (MDR1-MDCK), bi-directional transport. The data set is classed as in vitro ADME. The settings on record: conclusion in words.

Counter-ions that a name gives are not always drawn.

Chain of CSF-1R (P07333 20-972): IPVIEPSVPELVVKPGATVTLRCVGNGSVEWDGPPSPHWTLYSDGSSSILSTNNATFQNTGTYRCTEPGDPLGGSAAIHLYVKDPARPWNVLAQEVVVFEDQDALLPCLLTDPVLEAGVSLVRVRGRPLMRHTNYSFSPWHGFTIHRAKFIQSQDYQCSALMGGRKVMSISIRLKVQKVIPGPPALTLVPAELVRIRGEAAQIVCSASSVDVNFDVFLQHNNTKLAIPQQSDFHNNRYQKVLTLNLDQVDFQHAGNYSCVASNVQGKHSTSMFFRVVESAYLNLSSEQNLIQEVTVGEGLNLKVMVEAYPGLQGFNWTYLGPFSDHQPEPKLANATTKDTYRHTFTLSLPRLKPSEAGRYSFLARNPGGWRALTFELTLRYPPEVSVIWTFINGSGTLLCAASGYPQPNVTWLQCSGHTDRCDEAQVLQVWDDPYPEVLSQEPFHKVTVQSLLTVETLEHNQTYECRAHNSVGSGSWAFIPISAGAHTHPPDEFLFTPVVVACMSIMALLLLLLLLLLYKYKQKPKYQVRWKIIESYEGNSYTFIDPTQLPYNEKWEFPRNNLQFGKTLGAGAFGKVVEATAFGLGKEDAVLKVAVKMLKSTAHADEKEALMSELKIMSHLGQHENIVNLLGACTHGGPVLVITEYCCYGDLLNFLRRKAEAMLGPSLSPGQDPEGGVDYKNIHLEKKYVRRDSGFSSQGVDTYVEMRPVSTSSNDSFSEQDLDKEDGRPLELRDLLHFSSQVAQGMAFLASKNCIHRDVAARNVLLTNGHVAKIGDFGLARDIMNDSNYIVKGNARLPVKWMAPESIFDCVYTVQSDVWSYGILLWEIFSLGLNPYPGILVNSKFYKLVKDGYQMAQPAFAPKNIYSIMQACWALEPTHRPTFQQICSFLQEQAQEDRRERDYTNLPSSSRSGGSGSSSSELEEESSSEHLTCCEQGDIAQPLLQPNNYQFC
Chain of CYP2C9 (P11712 whole entry): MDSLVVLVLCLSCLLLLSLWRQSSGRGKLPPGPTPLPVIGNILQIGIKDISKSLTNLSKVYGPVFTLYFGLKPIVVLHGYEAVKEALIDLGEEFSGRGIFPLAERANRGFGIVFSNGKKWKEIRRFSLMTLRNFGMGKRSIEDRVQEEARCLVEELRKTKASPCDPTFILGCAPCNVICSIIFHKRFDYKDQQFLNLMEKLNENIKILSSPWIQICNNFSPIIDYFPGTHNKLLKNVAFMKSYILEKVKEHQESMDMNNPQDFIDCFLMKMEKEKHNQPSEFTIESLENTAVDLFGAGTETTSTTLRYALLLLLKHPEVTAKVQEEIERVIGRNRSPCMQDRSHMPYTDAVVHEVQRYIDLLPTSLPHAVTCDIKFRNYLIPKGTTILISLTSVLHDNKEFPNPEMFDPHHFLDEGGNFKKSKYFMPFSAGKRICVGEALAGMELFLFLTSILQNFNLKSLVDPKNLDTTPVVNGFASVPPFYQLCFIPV
Chain of CYP2C19 (P33261 whole entry): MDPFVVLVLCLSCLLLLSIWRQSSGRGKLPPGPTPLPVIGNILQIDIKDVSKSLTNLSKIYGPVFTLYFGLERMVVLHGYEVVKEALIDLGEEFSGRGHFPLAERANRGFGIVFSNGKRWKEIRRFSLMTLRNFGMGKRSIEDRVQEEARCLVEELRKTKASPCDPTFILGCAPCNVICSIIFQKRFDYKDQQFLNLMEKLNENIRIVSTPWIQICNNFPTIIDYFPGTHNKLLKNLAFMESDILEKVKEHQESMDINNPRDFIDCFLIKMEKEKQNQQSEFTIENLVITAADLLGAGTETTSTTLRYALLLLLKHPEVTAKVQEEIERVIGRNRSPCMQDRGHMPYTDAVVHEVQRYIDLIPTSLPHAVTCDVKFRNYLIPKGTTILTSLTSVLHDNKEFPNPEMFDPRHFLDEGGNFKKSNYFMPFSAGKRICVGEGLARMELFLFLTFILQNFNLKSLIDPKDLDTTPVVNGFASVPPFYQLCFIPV
Chain of CYP1A2 (P05177 whole entry): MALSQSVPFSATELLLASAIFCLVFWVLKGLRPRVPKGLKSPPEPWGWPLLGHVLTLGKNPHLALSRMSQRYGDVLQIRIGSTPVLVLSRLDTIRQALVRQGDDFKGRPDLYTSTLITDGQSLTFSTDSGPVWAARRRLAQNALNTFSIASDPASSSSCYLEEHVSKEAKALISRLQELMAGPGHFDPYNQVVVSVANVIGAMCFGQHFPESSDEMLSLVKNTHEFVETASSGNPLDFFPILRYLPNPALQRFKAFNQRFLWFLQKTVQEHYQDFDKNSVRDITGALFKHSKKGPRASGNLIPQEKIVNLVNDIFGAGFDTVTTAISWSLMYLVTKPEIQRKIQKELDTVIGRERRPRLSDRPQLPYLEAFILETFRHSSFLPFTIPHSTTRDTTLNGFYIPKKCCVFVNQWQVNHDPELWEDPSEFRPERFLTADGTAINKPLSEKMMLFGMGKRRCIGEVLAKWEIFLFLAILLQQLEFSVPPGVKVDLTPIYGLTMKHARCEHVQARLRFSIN

`CNC(=O)c1nccc2c(-c3cnc(Nc4ccc(OC)nc4)cc3C)c[nH]c12` [Compound 7 hydrochloride] gave an IC50 at CSF-1R of 26 nM.

`Cl.FC(F)(F)c1ccc(CNc2ccc(Cc3c[nH]c4ncc(Cl)cc34)cn2)cn1` [PLX-3397, Pexidartinib, reference compound]: the IC50 at CYP2C19 is 8.32 µM; on CYP3A4 it was over 35.6 µM; on CYP1A2 it was 24 µM; on CYP2C9, 3.81 µM; on CYP2D6, 8.77 µM. The AUC(0-t) worked out at 8.49 µM·h in data set [1] (1 mg/kg, IV, 1 mpk); 70.2 µM·h in [1] (10 mg/kg, PO, 10 mpk); 29 µM·h in data set [2] (1 mg/kg, IV, 1 mpk); 131 µM·h in [2] (10 mg/kg, PO, 10 mpk). Moreover, the Vd in [1] (1 mg/kg, IV, 1 mpk) was 0.613 L/kg; in data set [2] (1 mg/kg, IV, 1 mpk), 0.265 L/kg. Besides, the clearance in [1] (1 mg/kg, IV, 1 mpk) amounted to 4.64 mL/min/kg; in data set [2] (1 mg/kg, IV, 1 mpk), 0.927 mL/min/kg. Moreover, the half-life is 76.2 min in [1] (1 mg/kg, IV, 1 mpk) and 200 min in data set [2] (1 mg/kg, IV, 1 mpk). Also, the Cmax in data set [1] (10 mg/kg, PO, 10 mpk) was 10.7 µM; in data set [2] (10 mg/kg, PO, 10 mpk) it was 17.2 µM. In addition, the Tmax in [1] (10 mg/kg, PO, 10 mpk) is 1.5 h; in data set [2] (10 mg/kg, PO, 10 mpk), 4 h. The bioavailability in data set [1] (10 mg/kg, PO, 10 mpk) turned out to be 81%; in [2] (10 mg/kg, PO, 10 mpk), 74.1%.

For `CNC(=O)c1nccc2c(-c3cnc(Nc4ccc(C)nc4)cc3C)c[nH]c12` [Compound 6 hydrochloride], the IC50 at CSF-1R was found to be 30 nM.

In the case of `CNC(=O)c1nccc2c(-c3cnc(Nc4ccc(OC)cc4)cc3C)c[nH]c12` [Compound 8 hydrochloride], the IC50 at CSF-1R was 10 nM.

Take `CNC(=O)c1nccc2c(-c3cnc(Nc4ccc(OC5CC5)nc4)cc3C)c[nH]c12` [Compound 1 hydrochloride]: the IC50 is 21 µM at CYP2C19; 28 µM on CYP3A4; over 50 µM on CYP1A2; 1.13 nM at CSF-1R; 11.6 µM at CYP2C9; over 50 µM on CYP2D6. In addition, the area under the curve AUC(0-t) in data set [1] (1 mg/kg, IV, 1 mpk) turned out to be 66 µM·h; in data set [1] (3 mg/kg, PO, 3 mpk) it was 249 µM·h; in data set [2] (1 mg/kg, IV, 1 mpk), 168 µM·h; in data set [2] (10 mg/kg, PO, 10 mpk) it was 1650 µM·h. For the same molecule, the Vd in data set [1] (1 mg/kg, IV, 1 mpk) was determined as 0.2 L/kg; in data set [2] (1 mg/kg, IV, 1 mpk) it was 0.15 L/kg. Further, the clearance is 0.61 mL/min/kg in data set [1] (1 mg/kg, IV, 1 mpk) and 0.2 mL/min/kg in data set [2] (1 mg/kg, IV, 1 mpk). In addition, the half-life was 204 min in data set [1] (1 mg/kg, IV, 1 mpk) and 517 min in [2] (1 mg/kg, IV, 1 mpk). For the same molecule, the Cmax in data set [1] (3 mg/kg, PO, 3 mpk) worked out at 27.4 µM; in data set [2] (10 mg/kg, PO, 10 mpk), 117 µM. Besides, the Tmax in [1] (3 mg/kg, PO, 3 mpk) worked out at 2 h; in data set [2] (10 mg/kg, PO, 10 mpk) it was 3 h. Also, the bioavailability worked out at 129% in [1] (3 mg/kg, PO, 3 mpk) and 98% in data set [2] (10 mg/kg, PO, 10 mpk). Moreover, the “efficacy in TEL-CSF1R-BaF3 cell splenomegaly assay” value in data set [3] (1 mpk, comparable to PLX-3397 (10 mg/kg)) is “significant efficacy”; in [3] (10 mpk) it was “significant advantage”. The “dose-dependence in TEL-CSF1R-BaF3 cell splenomegaly assay” value in data set [3] (high, medium and low doses (10, 3, 1 mg/kg p.o. QD)) is listed as “clear dose-dependence”. For the same molecule, the “permeability compared with PLX-3397” value with MDR1-MDCK was “higher than that of PLX-3397”.

`CNC(=O)c1nccc2c(-c3cnc(Nc4ccc(OC5CC5)nc4)cc3C)cn(C)c12` [Compound 2 hydrochloride]: the IC50 at CSF-1R was 26.8 nM.

Turning to `CNC(=O)c1nccc2c(-c3cnc(Nc4ccc(OC(C)C)cc4)cc3C)c[nH]c12` [Compound 3 hydrochloride], the IC50 at CSF-1R stood at 34 nM.

A word on the IC50: it is the concentration needed to halve the response being measured. By AUC(0-t) is commonly meant the area under the concentration-time curve up to a stated or last time point. Usually Vd stands for the apparent volume that relates the amount in the body to the concentration in plasma or blood. Low values mean little distribution into tissue, high ones wide distribution into tissue. A word on the clearance: it is the rate of elimination divided by the concentration. What is called half-life is how long it takes for the measured level to halve. In general, Cmax refers to the maximum level reached in the sampled fluid or tissue. Usually Tmax stands for the time from dosing to the highest level.

Source of the values: US20230357241A1, “1H-PYRROLO[2,3-C]PYRIDINE COMPOUNDS AND APPLICATION THEREOF” (MEDSHINE DISCOVERY INC., priority 2020, published 2023).
